Experimental data: US20100113584A1, “NOVEL USE OF (-)-EPIGALLOCATECHIN GALLATE” (priority 2007, published 2010)

What was measured:
[1] = system: C57BL/6J mice; experiment: Daily voluntary running wheel activity of mice on high-fat diet; type: in vivo; conditions: male C57BL/6J mice, high-fat diet containing 0.5% w/w EGCG, free access to running wheel, 2 months; P<0.004 vs high-fat diet alone
Text: Male C57BL/6J mice (5 weeks old) were purchased from Charles River (Sulzfeld, Germany). All mice initially received a high-fat diet (Kliba#2154, Provimi Kliba AG, Kaiseraugst, Switzerland) for 3 months. Thereafter, mice were randomly assigned to 5 groups. • Group 1: Low-fat diet, restricted to cage normal activity (Low fat sedentary, n=11) • Group 2: High-fat diet, restricted to cage normal activity (High fat sedentary, n=11) • Group 3: High-fat diet containing 0.5% w/w EGCG, restricted to cage normal activity (High fat+EGCG sedentary, n=10) • Group 4: High-fat diet, free access to running wheel (High fat exercise, n=10) • Group 5: High-fat diet containing 0.5% w/w EGCG, free access to running wheel (High fat+EGCG exercise, n=10) The duration of the treatment was 2 months. […] Daily voluntary running wheel activity was monitored. At the end of the treatment period, maximal running performance on a rodent treadmill (Technical & Scientific Equipment GmbH, Bad Homburg, Germany) was determined. The Gastrocnemius muscles were excised, frozen in liquid nitrogen and stored at −80° C. for later quantification of the fiber type. In the medial gastrocnemius, skeletal muscle fibers were quantified as Type I, Type IIA, Type D/X, Type IIB by immune-histochemistry utilizing fiber specific antibodies and by histochemistry using a cytochrome oxidase staining.

[2] = system: skeletal muscle fibers of medial gastrocnemius muscle; experiment: Fiber type quantification in medial gastrocnemius muscle (immune-histochemistry, cytochrome oxidase staining); type: in vivo, mice; conditions: 2 months
Text: Male C57BL/6J mice (5 weeks old) were purchased from Charles River (Sulzfeld, Germany). All mice initially received a high-fat diet (Kliba#2154, Provimi Kliba AG, Kaiseraugst, Switzerland) for 3 months. Thereafter, mice were randomly assigned to 5 groups. • Group 1: Low-fat diet, restricted to cage normal activity (Low fat sedentary, n=11) • Group 2: High-fat diet, restricted to cage normal activity (High fat sedentary, n=11) • Group 3: High-fat diet containing 0.5% w/w EGCG, restricted to cage normal activity (High fat+EGCG sedentary, n=10) • Group 4: High-fat diet, free access to running wheel (High fat exercise, n=10) • Group 5: High-fat diet containing 0.5% w/w EGCG, free access to running wheel (High fat+EGCG exercise, n=10) The duration of the treatment was 2 months. During this period all mice received food and water ad libitum. Mice in groups 4 and 5 had unlimited access to running wheels (Technical & Scientific Equipment GmbH, Bad Homburg, Germany). Daily voluntary running wheel activity was monitored. At the end of the treatment period, maximal running performance on a rodent treadmill (Technical & Scientific Equipment GmbH, Bad Homburg, Germany) was determined. The Gastrocnemius muscles were excised, frozen in liquid nitrogen and stored at −80° C. for later quantification of the fiber type. In the medial gastrocnemius, skeletal muscle fibers were quantified as Type I, Type IIA, Type D/X, Type IIB by immune-histochemistry utilizing fiber specific antibodies and by histochemistry using a cytochrome oxidase staining.

[3] = High fat + EGCG (0.5% w/w) exercise (running wheel)
[4] = High fat + EGCG (0.5% w/w) sedentary

(−)-epigallocatechin gallate [EGCG]
voluntary running wheel activity, average distance run per day [1]: 3140.3±43.3 m per day | Percentage of Type I fibers in medial gastrocnemius muscle [2, 3]: 12.8% | Percentage of Type IIa fibers in medial gastrocnemius muscle [2, 3]: 54.2% | Percentage of Type IIb fibers in medial gastrocnemius muscle [2, 3]: 27.8% | Percentage of Type IId/x fibers in medial gastrocnemius muscle [2, 3]: 5.1% | Percentage of Type I fibers in medial gastrocnemius muscle [2, 4]: 12.5% | Percentage of Type IIa fibers in medial gastrocnemius muscle [2, 4]: 53.5% | Percentage of Type IIb fibers in medial gastrocnemius muscle [2, 4]: 28.8% | Percentage of Type IId/x fibers in medial gastrocnemius muscle [2, 4]: 5.2%
